Measurements published in patent US8324384B2, “Glucagon receptor antagonist compounds, compositions containing such compounds and methods of use” (Merck Sharp & Dohme Corp., priority 2010, dated 2012).

Molecular target: T1, cloned human glucagon receptor (Homo sapiens, UniProt P47871)
T1 construct: expressed in transfected cells; cell membranes used
Assay: Glucagon Receptor Binding Assay (125I-Glucagon, SPA, CHO cell membranes)
Details: for IC50: inhibition of 125I-Glucagon binding to membranes of CHO cells expressing human glucagon receptor, more active isomer of indicated compounds; for potency as glucagon receptor antagonist relative to the other diastereomer: racemic diastereomers of Example 5 separated by reverse-phase HPLC, assay not given
Protocol: Glucagon Receptor Binding Assay
A stable CHO (Chinese hamster ovary) cell line expressing cloned human glucagon receptor was maintained as described (Chiechi, et. al. J Biol Chem 272, 7765-9(1997); Cascieri, et. al. J Biol Chem 274, 8694-7(1999)). To determine antagonistic binding affinity of compounds, 0.001-0.003 mg of cell membranes from these cells were pre-incubated with 0.100 mg WGA-coated PVT SPA beads (Amersham) for 20 minutes at room temperature in 25 μL of a buffer containing 50 mM Tris-HCl (pH 7.5), 5 mM MgCl2, 2 mM EDTA, 0.1% BSA and 3% glycerol in Costar 384 well plates with clear bottoms (#3706). Next, 25 μL of ^125I-Glucagon (New England Nuclear, MA) (1×10^−14 mol per well) and either 1 μL solutions of test compounds or 0.001 mM unlabeled glucagon or DMSO were added and mixed. After 4-12 hours incubation at room temperature, the radioactivity bound to the cell membranes was determined in a radioactive emission detection counter (Wallac-Microbeta). Data were analyzed using the Data Analyzer software program of Merck & Co., Inc. The IC50 values were calculated using non-linear regression analysis assuming single-site competition.

T1 sequence (P47871 26-477): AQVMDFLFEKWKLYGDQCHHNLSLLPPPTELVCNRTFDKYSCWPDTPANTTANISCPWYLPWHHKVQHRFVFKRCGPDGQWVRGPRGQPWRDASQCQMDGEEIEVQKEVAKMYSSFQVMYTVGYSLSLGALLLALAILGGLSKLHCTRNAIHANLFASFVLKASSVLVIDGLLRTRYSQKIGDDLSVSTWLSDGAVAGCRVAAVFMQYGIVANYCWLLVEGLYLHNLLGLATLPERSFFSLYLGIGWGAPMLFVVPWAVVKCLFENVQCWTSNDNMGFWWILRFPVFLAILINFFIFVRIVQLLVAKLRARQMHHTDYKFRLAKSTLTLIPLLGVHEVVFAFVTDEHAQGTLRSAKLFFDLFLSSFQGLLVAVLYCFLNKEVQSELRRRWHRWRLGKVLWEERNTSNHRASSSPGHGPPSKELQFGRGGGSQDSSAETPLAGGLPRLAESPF

Row | IC50 | potency as glucagon receptor antagonist relative to the other diastereomer | Structure (SMILES)
1 | 1.1 nM |  | CCCC(c1ccc(C(=O)NCC(O)C(=O)O)cc1)C(C(=O)N1Cc2ccc(OC(F)(F)F)cc2C1)c1ccc(Cl)cc1 (mixture of isomers) [Example 99]
2 | 5.9 nM |  | CCCC(c1ccc(C(=O)NC(C)CC(=O)O)cc1)C(C(=O)N1Cc2ccc(OC(F)(F)F)cc2C1)c1ccc(Cl)cc1 (mixture of isomers) [Example 101]
3 | 10 nM |  | CCCC(c1ccc(C(=O)NCCC(=O)O)cc1)C(C(=O)N1CCc2ccccc21)c1ccc(Cl)cc1 (racemic) [Example 3, N-(4-{1-[1-(4-chlorophenyl)-2-(2,3-dihydro-1H-indol-1-yl)-2-oxoethyl]butyl}benzoyl)-β-alanine]
4 | 0.8 nM |  | CCCC(c1ccc(C(=O)NCCC(=O)O)cc1)C(C(=O)N1Cc2cccc(C(F)(F)F)c2C1)c1ccc(Cl)cc1 (single isomer, unassigned) [Example 1, N-[4-(1-{1-(4-chlorophenyl)-2-oxo-2-[4-(trifluoromethyl)-1,3-dihydro-2H-isoindol-2-yl]ethyl}butyl)benzoyl]-β-alanine]
5 | 48 nM |  | CCCC(c1ccc(C(=O)NCCC(=O)O)cc1)C(C(=O)N1CCCc2ccccc21)c1ccc(Cl)cc1 (single isomer, unassigned) [Example 2, N-(4-{1-[1-(4-chlorophenyl)-2-(3,4-dihydroquinolin-1(2H)-yl)-2-oxoethyl]butyl}benzoyl)-β-alanine]
6 | 0.5 nM |  | CCCC(c1ccc(C(=O)NCCC(=O)O)cc1)C(C(=O)N1Cc2ccc(-c3cccnc3OC)cc2C1)c1ccc(Cl)cc1 (single isomer, unassigned) [Example 4, N-[4-(1-{1-(4-chlorophenyl)-2-[5-(2-methoxypyridin-3-yl)-1,3-dihydro-2H-isoindol2-yl]-2-oxoethyl}butyl)benzoyl]-β-alanine]
7 |  | less potent | CCCC(c1ccc(C(=O)Nc2nnn[nH]2)cc1)C(C(=O)N1Cc2ccc(OC(F)(F)F)cc2C1)c1ccc(Cl)cc1 (single isomer, unassigned) [Example 5 Minor isomer]
8 | 0.1 nM |  | CCCC(c1ccc(C(=O)NCCC(=O)O)cc1)C(C(=O)N1Cc2cccc(C)c2C1)c1ccc(Cl)cc1 (single isomer, unassigned) [Example 49]
9 | 0.6 nM |  | CCCC(c1ccc(C(=O)NCCC(=O)O)cc1)C(C(=O)N1Cc2cc(Cl)cc(Cl)c2C1)c1ccc(Cl)cc1 (single isomer, unassigned) [Example 55]
10 | 1 nM |  | CCCC(c1ccc(C(=O)NCCC(=O)O)cc1)C(C(=O)N1CCc2cc(-c3ccc(Cl)cc3)ccc2C1)c1ccc(Cl)cc1 (single isomer, unassigned) [Example 69]
11 | 1.6 nM |  | CCCC(c1ccc(C(=O)NCCC(=O)O)cc1)C(C(=O)N1CCc2cc(-c3ccc(C)cc3)ccc2C1)c1ccc(Cl)cc1 (single isomer, unassigned) [Example 70]
12 | 1.5 nM |  | CCCC(c1ccc(C(=O)NCCC(=O)O)cc1)C(C(=O)N1CCc2cc(OC)ccc2C1)c1ccc(Cl)cc1 (single isomer, unassigned) [Example 79]
13 | 0.9 nM |  | CCCC(c1ccc(C(=O)NCCC(=O)O)cc1)C(C(=O)N1CCc2cc(C(F)(F)F)ccc2C1)c1ccc(Cl)cc1 (single isomer, unassigned) [Example 80]
14 | 0.4 nM |  | CCCC(c1ccc(C(=O)NCCC(=O)O)cc1)C(C(=O)N1CCc2cc(C)ccc2C1)c1ccc(Cl)cc1 (single isomer, unassigned) [Example 82]
15 | 3.2 nM |  | CCCC(c1ccc(C(=O)NCCC(=O)O)cc1)C(C(=O)N1CCc2ccc(-c3ccc(C)cc3)cc2C1)c1ccc(Cl)cc1 (single isomer, unassigned) [Example 88]
16 | 9.8 nM |  | CCCC(c1ccc(C(=O)NCCC(=O)O)cc1)C(C(=O)N1CCc2ccc(F)cc2C1)c1ccc(Cl)cc1 (single isomer, unassigned) [Example 93]
17 | 2.2 nM | more potent | CCCC(c1ccc(C(=O)Nc2nnn[nH]2)cc1)C(C(=O)N1Cc2ccc(OC(F)(F)F)cc2C1)c1ccc(Cl)cc1 (stereo not shown) [Example 5]
18 | 0.4 nM |  | CCCC(c1ccc(C(=O)NCCC(=O)O)cc1)C(C(=O)N1Cc2ccc(C(F)(F)F)cc2C1)c1ccc(C(F)(F)F)cc1 (stereo not shown) [Example 6]
19 | 0.4 nM |  | CCCC(c1ccc(C(=O)NCCC(=O)O)cc1)C(C(=O)N1Cc2ccc(-c3ccc(OC)nc3)cc2C1)c1ccc(C(F)(F)F)cc1 (stereo not shown) [Example 8]
20 | 0.4 nM |  | CCCC(c1ccc(C(=O)NCCC(=O)O)cc1)C(C(=O)N1Cc2ccc(-c3ccc(OC)nc3)cc2C1)c1cc(F)cc(F)c1 (stereo not shown) [Example 9]
21 | 2 nM |  | CCCC(c1ccc(C(=O)NCCC(=O)O)cc1)C(C(=O)N1Cc2ccc(-c3cc(OC)ccn3)cc2C1)c1ccc(Cl)cc1 (stereo not shown) [Example 13]
22 | 0.6 nM |  | CCCC(c1ccc(C(=O)NCCC(=O)O)cc1)C(C(=O)N1Cc2ccc(-c3ccnc(C)c3)cc2C1)c1ccc(Cl)cc1 (stereo not shown) [Example 30]
23 | 5.5 nM |  | CCCC(c1ccc(C(=O)NCCC(=O)O)cc1)C(C(=O)N1Cc2ccc(C#N)cc2C1)c1ccc(Cl)cc1 (stereo not shown) [Example 36]
24 | 0.6 nM |  | CCCC(c1ccc(C(=O)NCCC(=O)O)cc1)C(C(=O)N1Cc2ccc(C)cc2C1)c1ccc(Cl)cc1 (stereo not shown) [Example 37]
25 | 0.6 nM |  | CCCC(c1ccc(C(=O)NCCC(=O)O)cc1)C(C(=O)N1Cc2ccc(-c3ccc(OC)nc3)cc2C1)c1ccc(Cl)cc1 (stereo not shown) [Example 41]
26 | 0.2 nM |  | CCCC(c1ccc(C(=O)NCCC(=O)O)cc1)C(C(=O)N1CCc2cc(-c3ccc(C)cc3)ccc21)c1ccc(Cl)cc1 (stereo not shown) [Example 63]
27 | 1.1 nM |  | CCCC(c1ccc(C(=O)NCCS(=O)(=O)O)cc1)C(C(=O)N1Cc2ccc(C(F)(F)F)cc2C1)c1ccc(Cl)cc1 (stereo not shown) [Example 107]
